Source: US20080221132A1, “Multi-Functional Small Molecules as Anti-Proliferative Agents” (priority 2006, published 2008)
Where two headings read alike, the source gives them in different places.

Tests used:
Pancreas_Capan1 = experiment: Cell proliferation assay (ATPlite), Capan1; format: cell-based; settings: Homo sapiens, CAPAN-1; TABLE C; 72 hours, 0.5% fetal bovine serum, ATP content; read-out: IC50 grading, Pancreas_Capan1
Protocol: (§1) A representative number of compounds were assayed against several different cell lines using the cell proliferation assay:
(§2) Cell Proliferation Assay:
(§3) Cancer cell lines were plated at 5,000 to 10,000 per well in 96-well flatted bottomed plates with various concentration of compounds. The cells were incubated with compounds for 72 hours in the presence of 0.5% of fetal bovine serum. Growth inhibition was accessed by adenosine triphosphate (ATP) content assay using Perkin Elmer ATPlite kit. ATPlite is an ATP monitoring system based on firefly luciferase. Briefly, 25 μl of mammalian cell lysis solution was added to 50 μl of phenol red-free culture medium per well to lyse the cells and stabilize the ATP. 25 μl of substrate solution was then added to the well and subsequently the luminescence was measured.

[1] = tested on: Prostate_PC3 (PC-3, prostate adenocarcinoma); experiment: Cell proliferation assay (ATPlite), PC3; format: cell-based
Protocol: as §1, §2
(§4) Cancer cell lines were plated at 5,000 to 10,000 per well in 96-well flatted bottomed plates with various concentration of compounds. […] Growth inhibition was accessed by adenosine triphosphate (ATP) content assay using Perkin Elmer ATPlite kit. ATPlite is an ATP monitoring system based on firefly luciferase. Briefly, 25 μl of mammalian cell lysis solution was added to 50 μl of phenol red-free culture medium per well to lyse the cells and stabilize the ATP. 25 μl of substrate solution was then added to the well and subsequently the luminescence was measured.

in vivo = settings: male, CD-1, mouse, ip; for AUC: AUC (h * ng/ml)
Protocol: Drug Preparation and Administration.
Blood and tissue Sample Collection.
Plasma Sample Extraction. Plasma samples were prepared by protein precipitation. An internal standard was added into plasma samples. […] The supernatant was then injected onto LC/MS/MS.
Samples were compared to standards made in plasma. These standards were prepared by serial dilution.
Tissue Sample Extraction. […] Tissues were homogenized in 0.8 ml water. An internal standard was added into the tissue homogenates.
LC/MS/MS Analytical Methods.
LC Conditions are shown below:

FGFR2 Kinase = FGFR2 Kinase (Homo sapiens, UniProt P21802); experiment: Kinase panel (TABLE F), FGFR2 Kinase; format: biochemical
[2] = male, CD-1, mouse, in vivo, ip, 7 days
Protocol: 7-day-multiple dosing MTD in mice • a. CD-1 mice, male, 24-26 gram • b. Dosing at 0, 50, 100, 200 mg/kg/d ip • c. 6 mice per group • d. Blood and organs will be collected 2 hr after last dosing on Day 7 for hematology
(§5) Stock solution is diluted with 30% CAPTISOL before use.

[3] = tested on: Breast_MDAMB468 (MDA-MB-468, breast adenocarcinoma); experiment: Cell proliferation assay (ATPlite), MDA-MB-468; format: cell-based; settings: Homo sapiens, TABLE C, 72 hours, 0.5% fetal bovine serum, ATP content, read-out: IC50 grading, Breast_MDAMB468
Protocol: as §1, §2, §4

Pancreas_CFPAC = experiment: Cell proliferation assay (ATPlite), CFPAC; format: cell-based; settings: TABLE C; 72 hours, 0.5% fetal bovine serum, ATP content; read-out: IC50 grading, Pancreas_CFPAC
Protocol: as §1, §2, §3

FLT-3 Kinase = FLT-3 Kinase (Homo sapiens, UniProt P36888); experiment: Kinase panel (TABLE F), FLT-3 Kinase; format: biochemical
[4] = male, CD-1, mouse, in vivo, iv, 9 day
Protocol: Single dosing MTD in mice • a. CD-1 mice, male, 24-26 gram • b. Dosing at 0, 50, 100, 200, 400 mg/kg, iv infusion 2 min • c. 8 mice per group
as §5

Lung_H1703 = experiment: Cell proliferation assay (ATPlite), H1703; format: cell-based; settings: Homo sapiens, NCI-H1703; TABLE C; 72 hours, 0.5% fetal bovine serum, ATP content; read-out: IC50 grading, Lung_H1703
Protocol: as §1, §2, §3

Lung_H460 = experiment: Cell proliferation assay (ATPlite), H460; format: cell-based; settings: Homo sapiens, NCI-H460; TABLE C; 72 hours, 0.5% fetal bovine serum, ATP content; read-out: IC50 grading, Lung_H460
Protocol: as §1, §2, §3

Pancreas_HPAC = experiment: Cell proliferation assay (ATPlite), HPAC; format: cell-based; settings: Homo sapiens, TABLE C, 72 hours, 0.5% fetal bovine serum, ATP content, read-out: IC50 grading, Pancreas_HPAC
Protocol: as §1, §2, §3

Lung_H2122 = experiment: Cell proliferation assay (ATPlite), H2122; format: cell-based; settings: Homo sapiens, NCI-H2122; TABLE C; 72 hours, 0.5% fetal bovine serum, ATP content; read-out: IC50 grading, Lung_H2122
Protocol: as §1, §2, §3

Pancreas_MiaPaCa2 = experiment: Cell proliferation assay (ATPlite), MiaPaCa2; format: cell-based; settings: Homo sapiens, MIA PaCa-2; TABLE C; 72 hours, 0.5% fetal bovine serum, ATP content; read-out: IC50 grading, Pancreas_MiaPaCa2
Protocol: as §1, §2, §3

[5] = tested on: Breast_SkBr3 (SKBr3, breast carcinoma); experiment: Cell proliferation assay (ATPlite), SkBr3; format: cell-based; settings: Homo sapiens, SK-BR-3
Protocol: as §1, §2, §4

Lung_H1975 = experiment: Cell proliferation assay (ATPlite), H1975; format: cell-based; settings: Homo sapiens, NCI-H1975; TABLE C; 72 hours, 0.5% fetal bovine serum, ATP content; read-out: IC50 grading, Lung_H1975
Protocol: as §1, §2, §3

Abl Kinase = Abl Kinase (Homo sapiens, UniProt P00519); experiment: Kinase panel (TABLE F), Abl Kinase; format: biochemical
Lck Kinase = Lck Kinase (Homo sapiens, UniProt P06239); experiment: Kinase panel (TABLE F), Lck Kinase; format: biochemical
[6] = tested on: Epidermoid_A431 (A431, epidermoid carcinoma); experiment: Cell proliferation assay (ATPlite), A431; format: cell-based; settings: Homo sapiens, A-431
Protocol: as §1, §2, §4

[7] = tested on: Colon_HCT116 (HCT116, colon cancer); experiment: Cell proliferation assay (ATPlite), HCT116; format: cell-based; settings: Homo sapiens, HCT-116; TABLE C; 72 hours, 0.5% fetal bovine serum, ATP content; read-out: IC50 grading, Colon_HCT116
Protocol: as §1, §2, §4

Lyn Kinase = Lyn Kinase (Homo sapiens, UniProt P07948); experiment: Kinase panel (TABLE F), Lyn Kinase; format: biochemical
Lyn Kinase, sequence (P07948 whole entry): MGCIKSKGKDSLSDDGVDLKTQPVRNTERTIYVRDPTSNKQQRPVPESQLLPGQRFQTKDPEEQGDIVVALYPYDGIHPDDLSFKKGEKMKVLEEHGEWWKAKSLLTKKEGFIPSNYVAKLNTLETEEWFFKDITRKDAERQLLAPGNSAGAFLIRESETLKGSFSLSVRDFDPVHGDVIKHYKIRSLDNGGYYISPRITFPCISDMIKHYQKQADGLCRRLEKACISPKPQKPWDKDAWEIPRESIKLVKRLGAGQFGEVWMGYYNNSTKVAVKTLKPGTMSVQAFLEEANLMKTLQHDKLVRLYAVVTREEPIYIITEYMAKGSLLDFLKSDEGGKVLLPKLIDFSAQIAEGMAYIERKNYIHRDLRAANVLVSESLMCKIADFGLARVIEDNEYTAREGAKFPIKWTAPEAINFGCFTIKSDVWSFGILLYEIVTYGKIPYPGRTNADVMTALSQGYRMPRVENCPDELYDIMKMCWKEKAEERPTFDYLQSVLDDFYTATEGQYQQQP

Abl Kinase, sequence (P00519 whole entry): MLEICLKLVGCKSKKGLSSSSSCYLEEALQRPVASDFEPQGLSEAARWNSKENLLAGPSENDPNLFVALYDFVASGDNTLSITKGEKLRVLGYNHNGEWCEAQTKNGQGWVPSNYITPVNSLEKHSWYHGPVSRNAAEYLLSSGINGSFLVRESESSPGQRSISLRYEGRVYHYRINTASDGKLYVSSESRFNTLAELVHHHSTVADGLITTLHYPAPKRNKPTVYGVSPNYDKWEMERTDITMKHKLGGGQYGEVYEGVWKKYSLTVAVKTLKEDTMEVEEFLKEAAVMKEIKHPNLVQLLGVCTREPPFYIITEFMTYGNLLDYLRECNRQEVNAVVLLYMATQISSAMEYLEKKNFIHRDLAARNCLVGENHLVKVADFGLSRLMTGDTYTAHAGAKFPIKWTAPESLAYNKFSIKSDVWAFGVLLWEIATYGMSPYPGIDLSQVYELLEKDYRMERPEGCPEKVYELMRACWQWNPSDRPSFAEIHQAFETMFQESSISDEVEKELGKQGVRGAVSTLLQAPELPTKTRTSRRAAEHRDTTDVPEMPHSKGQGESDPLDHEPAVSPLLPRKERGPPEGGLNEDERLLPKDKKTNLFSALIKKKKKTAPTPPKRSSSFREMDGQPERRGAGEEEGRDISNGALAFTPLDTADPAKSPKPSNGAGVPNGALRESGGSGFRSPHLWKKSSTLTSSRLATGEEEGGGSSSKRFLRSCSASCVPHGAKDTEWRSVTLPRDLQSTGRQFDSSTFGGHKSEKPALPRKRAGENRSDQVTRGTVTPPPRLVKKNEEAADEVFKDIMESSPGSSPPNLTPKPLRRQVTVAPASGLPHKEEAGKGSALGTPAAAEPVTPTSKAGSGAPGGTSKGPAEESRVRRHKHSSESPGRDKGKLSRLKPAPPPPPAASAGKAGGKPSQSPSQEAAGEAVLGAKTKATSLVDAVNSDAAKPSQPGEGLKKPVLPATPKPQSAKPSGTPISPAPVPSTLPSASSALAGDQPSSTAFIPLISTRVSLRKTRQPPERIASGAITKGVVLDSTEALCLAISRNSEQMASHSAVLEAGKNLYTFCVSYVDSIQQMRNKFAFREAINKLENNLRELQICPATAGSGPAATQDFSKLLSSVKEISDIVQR
Lck Kinase, sequence (P06239 whole entry): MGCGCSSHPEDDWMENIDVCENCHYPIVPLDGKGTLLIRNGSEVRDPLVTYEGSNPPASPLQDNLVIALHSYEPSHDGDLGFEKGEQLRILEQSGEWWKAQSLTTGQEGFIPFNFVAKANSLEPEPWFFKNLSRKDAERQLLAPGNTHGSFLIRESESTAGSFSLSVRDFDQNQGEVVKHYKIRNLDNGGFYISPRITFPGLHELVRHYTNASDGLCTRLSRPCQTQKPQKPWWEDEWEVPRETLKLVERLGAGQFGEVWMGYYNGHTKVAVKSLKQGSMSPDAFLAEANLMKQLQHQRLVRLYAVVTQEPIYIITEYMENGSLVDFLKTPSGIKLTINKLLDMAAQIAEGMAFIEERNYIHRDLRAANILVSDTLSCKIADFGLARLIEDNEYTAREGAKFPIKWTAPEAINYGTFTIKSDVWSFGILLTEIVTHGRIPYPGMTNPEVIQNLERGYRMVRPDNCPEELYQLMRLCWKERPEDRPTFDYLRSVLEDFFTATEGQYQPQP
FLT-3 Kinase, sequence (P36888 27-993): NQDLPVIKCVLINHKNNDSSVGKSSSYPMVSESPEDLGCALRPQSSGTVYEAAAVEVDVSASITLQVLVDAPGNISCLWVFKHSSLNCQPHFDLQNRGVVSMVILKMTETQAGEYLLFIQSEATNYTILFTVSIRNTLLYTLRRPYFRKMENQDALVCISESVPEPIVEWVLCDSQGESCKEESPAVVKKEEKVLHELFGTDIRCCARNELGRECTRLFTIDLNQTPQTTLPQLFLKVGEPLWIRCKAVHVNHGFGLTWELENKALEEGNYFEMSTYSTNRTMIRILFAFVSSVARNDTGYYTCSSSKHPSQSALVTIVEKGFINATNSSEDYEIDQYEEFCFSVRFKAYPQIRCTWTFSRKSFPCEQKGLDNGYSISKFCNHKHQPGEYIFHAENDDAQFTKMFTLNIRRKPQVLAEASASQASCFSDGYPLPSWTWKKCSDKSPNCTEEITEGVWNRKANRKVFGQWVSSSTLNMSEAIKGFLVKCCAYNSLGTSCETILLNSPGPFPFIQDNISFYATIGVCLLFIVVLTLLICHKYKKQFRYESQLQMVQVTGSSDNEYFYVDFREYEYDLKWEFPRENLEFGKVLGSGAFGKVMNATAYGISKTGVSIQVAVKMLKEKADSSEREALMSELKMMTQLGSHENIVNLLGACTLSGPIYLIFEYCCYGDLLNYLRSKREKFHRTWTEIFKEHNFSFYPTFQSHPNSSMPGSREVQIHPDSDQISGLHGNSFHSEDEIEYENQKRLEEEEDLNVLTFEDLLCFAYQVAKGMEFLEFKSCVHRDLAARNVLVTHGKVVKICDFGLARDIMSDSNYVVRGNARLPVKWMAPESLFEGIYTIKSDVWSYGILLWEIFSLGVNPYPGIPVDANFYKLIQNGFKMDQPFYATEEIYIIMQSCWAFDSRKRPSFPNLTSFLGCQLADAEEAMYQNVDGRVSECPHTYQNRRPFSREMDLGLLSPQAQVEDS
FGFR2 Kinase, sequence (P21802 22-821): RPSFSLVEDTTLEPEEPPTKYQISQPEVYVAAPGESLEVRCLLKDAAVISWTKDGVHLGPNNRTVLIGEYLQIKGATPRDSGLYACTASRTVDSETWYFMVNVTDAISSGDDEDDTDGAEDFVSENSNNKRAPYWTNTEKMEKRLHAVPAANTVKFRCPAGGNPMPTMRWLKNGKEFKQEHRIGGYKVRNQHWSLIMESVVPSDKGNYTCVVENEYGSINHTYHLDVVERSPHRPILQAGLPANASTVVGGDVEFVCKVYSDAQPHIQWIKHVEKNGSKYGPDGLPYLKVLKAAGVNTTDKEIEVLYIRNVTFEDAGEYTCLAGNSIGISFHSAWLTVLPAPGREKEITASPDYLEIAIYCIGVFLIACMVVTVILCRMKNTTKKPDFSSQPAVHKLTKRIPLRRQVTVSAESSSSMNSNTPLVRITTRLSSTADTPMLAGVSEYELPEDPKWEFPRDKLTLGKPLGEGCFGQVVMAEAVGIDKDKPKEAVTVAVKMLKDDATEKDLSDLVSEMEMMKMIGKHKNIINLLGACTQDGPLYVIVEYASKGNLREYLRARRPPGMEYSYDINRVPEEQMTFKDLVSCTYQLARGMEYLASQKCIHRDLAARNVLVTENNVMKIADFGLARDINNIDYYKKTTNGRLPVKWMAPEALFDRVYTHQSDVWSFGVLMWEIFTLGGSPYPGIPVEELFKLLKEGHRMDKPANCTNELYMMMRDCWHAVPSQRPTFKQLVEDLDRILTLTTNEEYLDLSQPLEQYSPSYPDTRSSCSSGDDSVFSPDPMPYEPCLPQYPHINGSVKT

C#Cc1cccc(Nc2ncnc3cc(OC)c(OCCCCCCC(=O)NO)cc23)c1 [Compound 12]
IC50 (Pancreas_Capan1): 100 to 1000 nM
IC50 ([1]; TABLE C, 72 hours, 0.5% fetal bovine serum, ATP content, read-out: IC50 grading, Prostate_PC3): 100 to 1000 nM
IC50 ([1]; TABLE D, Prostate adenocarcinoma, read-out: IC50 grading, PC-3): 500 to 5000 nM
AUC (in vivo; 20 mg/kg): 3750 ng·h/mL
AUC (in vivo; 60 mg/kg): 5720 ng·h/mL
Cmax (in vivo; 60 mg/kg, Cmax (uM)): 14.4 µM
inhibition at 5 µM (FGFR2 Kinase): 73%
dose without significant change in body weight [2]: up to 100 mg/kg
IC50 [3]: < 100 nM
IC50 (Pancreas_CFPAC): 100 to 1000 nM
inhibition at 5 µM (FLT-3 Kinase): 85%
dose without significant change in body weight [4]: up to 200 mg/kg
IC50 (Lung_H1703): 100 to 1000 nM
IC50 (Lung_H460): 100 to 1000 nM
IC50 (Pancreas_HPAC): 1000 to 10000 nM
IC50 (Lung_H2122): 100 to 1000 nM
IC50 (Pancreas_MiaPaCa2): 100 to 1000 nM
IC50 ([5]; TABLE C, 72 hours, 0.5% fetal bovine serum, ATP content, read-out: IC50 grading, Breast_SkBr3): 100 to 1000 nM
IC50 ([5]; TABLE D, Breast carcinoma, read-out: IC50 grading, SKBr3): 50 to 500 nM
IC50 (Lung_H1975): 100 to 1000 nM
inhibition at 5 µM (Abl Kinase): 57%
inhibition at 5 µM (Lck Kinase): 56%
IC50 ([6]; TABLE C, 72 hours, 0.5% fetal bovine serum, ATP content, read-out: IC50 grading, Epidermoid_A431): 100 to 1000 nM
IC50 ([6]; TABLE D, Epidermoid carcinoma, read-out: IC50 grading, A431): 50 to 500 nM
IC50 [7]: 100 to 1000 nM
inhibition at 5 µM (Lyn Kinase): 95%
